In patent US20210068388A1, “A MULTIPURPOSE POTENTIATOR COMPOSITION AND THE METHODS THEREOF” (priority 2017, published 2021):
Where two headings read alike, the source gives them in different places.

Columns and labels:
[1] = test system: African green monkey kidney cells (Vero cells); experiment: In-vitro cytotoxicity on Vero cells
Method: (§1) In-vitro cytotoxicity of the composition of was carried out on African green monkey kidney cells (Vero cells).

[2] = test system: African green monkey kidney cells (Vero cells)
Method: as §1

Row | Compound | toxic level [1] [%] | Non-toxic level (%) ([1]; up to total amount of the composition) | Non-toxic level (%) [2] [%] | toxic level [2] [%]
1 | [Cl-].[Na+] [Control-I, Sodium chloride] | 0.50 | 0.50 |  | 
2 | [Na+].[OH-] [Control-II, Sodium hydroxide] |  |  | 0.06 | 0.06
